# B1: IL-4: cytokine added to SW480 cells (protein, UniProt P05112 25-153, looked up)
# Interleukin-4: HKCDITLQEIIKTLNSLTEQKTLCTELTVTDIFAASKNTTEKETFCRAATVLRQFYSHHEKDTRCLGATAQQFHRHKQLIRFLKRLDRNLWGLAGLNSCPVKEANQSTLENFLERLKTIMREKYSKCSS
# B2: TNFβ: cytokine as printed in b202; figure legend b47 names TNFα (protein, UniProt P01374 35-205, looked up)
# Lymphotoxin-alpha: LPGVGLTPSAAQTARQHPKMHLAHSTLKPAAHLIGDPSKQNSLLWRANTDRAFLQDGFSLSNNSLLVPTSGIYFVYSQVVFSGKAYSPKATSSPLYLAHEVQLFSSQYPFHVPLLSSQKMVYPGLQEPWLHSMYHGAAFQLTQGDQLSTHTDGIPHLVLSPSTVFFGAFAL
# B3: IFNγ: cytokine interferon gamma added to SW480 cells (protein, UniProt P01579 24-161, looked up)
# Interferon gamma: QDPYVKEAENLKKYFNAGHSDVADNGTLFLGILKNWKEESDRKIMQSQIVSFYFKLFKNFKDDQSIQKSVETIKEDMNVKFFNSNKKKRDDFEKLTNYSVTDLNVQRKAIHELIQVMAELSPAAKTGKRKRSQMLFRG
# Tests used:
# S. typhimurium [1] = details: for percentage of intracellular bacteria: transfected Caco-2 cells, two hour infection at MOI=10, one hour gentamicin, relative to untransfected Caco-2 cells = 100%, mean ±SEM
# [2] = system: grim-19 mRNA in Caco-2 cells; assay: Real time RT-PCR of grim-19 mRNA in Caco-2 cells; type: cell-based, human; details: for grim-19 mRNA levels: Caco-2 cells harboring plasmid encoding siRNA
# Description: Total RNA of IEC lines were extracted using Trizol (INVITROGEN) according to the manufacturer's instructions. For reverse transcription, 2 μg of total RNA was transcribed with RT PCR reagents provided in the SUPERSCRIPT FIRST-STRAND SYNTHESIS SYSTEM (INVITROGEN). Real time RT-PCR was performed in an ABI Prism 7000 Sequence Detector using SYBR Green JumpStart™ detection system. Briefly, 50 ng of the reversed transcribed cDNA were used for each PCR reaction with 200 nM of forward and reverse primers. Primers used for PCR had the following sequences: Forward 5-[…]-3, Reverse 5-[…]-3 (GRIM-19, 194 bp); Forward 5-[…]-3, Feverse 5-[…]-3 (glyceraldehyde-3-phosphate dehydrogenase [GAPDH], 440 bp). The following PCR program was used: 50° C. for 2 minutes, then 95° C. for 10 minutes followed by 40 cycles of 95° C. for 15 seconds, 60° C. for 15 seconds and 72° C. for 15 seconds. The threshold cycle (CT) values were obtained for the reactions reflecting quantity of the template in the sample. GRIM-19 Delta CT (ΔCT) was calculated by subtracting the GAPDH CT value from the GRIM-19 CT value and thus, represented the relative quantity of the target molecule after normalizing with the internal standard GAPDH. The GRIM-19 ΔCT values of Caco-2 cells infected with Salmonella, or transfected with pcDNA4/HisMAX-GRIM 19 were expressed as the percentage of GRIM-19 ΔCT values of control Caco-2 cells.
# [3] = system: NOD2 protein in SW480 cells; assay: Western blot of NOD2 protein in SW480 cells; type: cell-based, human; details: TNFα stimulation, time-dependent
# Description: FIGS. 9A-9D depict NOD2 protein and its expression in SW480 cells. FIG. 9A is a schematic diagram showing the location of polypeptide sequences of NOD2 for immunization. FIGS. 9B, 9C, and 9D are photographs of Western blots. […] Untransfected COS7 cells were used as a negative control. […] Transiently transfected COS7 cells were immunoprecipitated with affinity purified (a.p.) anti-NOD2 antiserum (HM2559 a.p.), then immunoblotted with affinity purified biotinylated anti-NOD2 antiserum (b-HM2563 a.p.). […] As a positive control for NOD2 protein, lysates of COS7 cells transfected with pCMV FLAG-NOD2 was used.
# Previous reported efforts had not been successful in detecting active NOD2 protein in vitro or in vivo. To detect the expression of active CARD15/NOD2 protein, anti-NOD2 sera (FIG. 9A) were generated. […] Increased production of TNFα has been noted in the mucosa of patients with Crohn's disease.
# [4] = system: NOD2 mRNA expression in SW480 cells; assay: Northern blot analysis of NOD2 mRNA expression in SW480 cells; type: cell-based, human
# Description: FIGS. 8A-8D are photographs of Northern blots showing the effect of cytokines on Nod2 mRNA expression in SW480 cells. FIG. 8A is a Northern blot analysis of Nod2 mRNA expression in SW480 cells treated with 10 ng/ml of IFNγ, TNFα, IL-1β, IL-4 and TGFβ for six hours. As a positive control for CARD15/NOD2, human PBMC was used. […] In each of FIGS. 8A-8C, expression of Nod2 is shown relative to GAPDH expression.
# Regulation of NOD2 expression had not been previously characterized. In order to better understand how NOD2 expression might vary in the context of mucosal inflammation, the effects of cytokines on epithelial NOD2 expression were studied using the SW480 cell line.
# S. typhimurium [5] = assay: Bacterial invasion assay in HEK293 cells; type: cell-based, Salmonella enterica serovar Typhimurium; details: MDP-LD stimulated, two hour infection at MOI=10, compared to untransfected HEK293
# Description: (§1) FIGS. 19A and 19B are graphs showing that GRIM-19 acts downstream of NOD2 and is required from NF-κB activation. […] NF-κB activity was determined in the absence or presence of 1 μg of MDP-LD. grim-19 mRNA level was measured by RT-PCR using specific primers. […] After a two hour period of infection with S. typhimurium at MOI=10, invasive bacteria were quantified as described above. * p<0.05
# Invasion assays were performed with Salmonella enterica serovar Typhimurium or Escherichia coli TOP10 (Invitrogen). Cell monolayers were seeded in 24-well tissue culture plate with 10^5 cells/well and incubated for 20 hours. Monolayers were then infected in 1 ml of cell culture medium without antibiotic and with heat-inactivated FCS at a multiplicity of infection (MOI) of 10 bacteria per epithelial cell. After a two hour incubation period at 37° C., the monolayers were washed two times with PBS. Fresh cell culture medium containing 100 μg/ml of gentamicin (Sigma) was then added for one hour to kill any extracellular bacteria. The epithelial cells were then lysed with 1% Triton X-100 in deionized water. Samples of cell lysates were diluted and plated onto Luria-Bertani agar plates to determine the number of colony forming units (cfu), which corresponds to the number of intracellular bacteria.
# Caco-2 cells = Caco-2 cells transfected (overexpression), adenylate kinase release
# [6] = system: NOD2 mediated NF-κB activation; assay: NF-κB activation assay (luciferase reporter) in HEK293 cells; type: cell-based, human; details: HEK293 transfected with NOD2, 1 μg MDP-LD stimulation; relative to HEK293 transfected only with NOD2 or with pSUPER control vector
# Description: as §1
# HEK293 cells were transfected overnight with 1 ng of NOD2, 10 ng of grim-19 siRNA plus 1 ng of pIV luciferase reporter plasmid and renilla plasmid. At the same time, 1 μg of MDP-LD (Sigma) was added. After twenty-four hours, luciferase activity was measured using the Dual-Luciferase Reporter Assay System (Promega, Madison, Wis.) according to the manufacturer's instructions and normalized relative to renilla activity.
# [7] = system: grim-19 mRNA in HEK293 cells; assay: RT-PCR of grim-19 mRNA in HEK293 cells; type: cell-based, human; details: HEK293 cells transfected with NOD2 and siRNA
# Description: as §1
# Total RNA of IEC lines were extracted using Trizol (INVITROGEN) according to the manufacturer's instructions. For reverse transcription, 2 μg of total RNA was transcribed with RT PCR reagents provided in the SUPERSCRIPT FIRST-STRAND SYNTHESIS SYSTEM (INVITROGEN). Real time RT-PCR was performed in an ABI Prism 7000 Sequence Detector using SYBR Green JumpStart™ detection system. […] The threshold cycle (CT) values were obtained for the reactions reflecting quantity of the template in the sample. GRIM-19 Delta CT (ΔCT) was calculated by subtracting the GAPDH CT value from the GRIM-19 CT value and thus, represented the relative quantity of the target molecule after normalizing with the internal standard GAPDH. The GRIM-19 ΔCT values of Caco-2 cells infected with Salmonella, or transfected with pcDNA4/HisMAX-GRIM 19 were expressed as the percentage of GRIM-19 ΔCT values of control Caco-2 cells.
# [8] = system: NOD1 mRNA expression in SW480 cells; assay: Northern blot analysis of NOD1 mRNA expression in SW480 cells treated with cytokines; type: cell-based, human; details: 10 ng/ml cytokine for six hours, Northern blot relative to GAPDH
# Description: FIGS. 3A, B, C, D, E, and F are photographs showing Northern blots. […] Cells were treated with IFNγ for six hours. […] Cells were treated with 100 ng/ml IFNγ.
# Regulation of NOD1 expression had not been described previously. […] The effect of IFNγ on NOD1 mRNA expression is time and concentration dependent manner as assessed by Northern blot analysis (FIG. 3C-3E).
# human NOD1 promoter = assay: NOD1 promoter luciferase reporter assay in SW480 cells; type: cell-based; details: SW480 cells transfected with pGL-2128, 100 ng/ml IFNγ for sixteen hours
# Description: FIGS. 5A-5D are panels showing that IFNγ activated the human NOD1 promoter. FIG. 5A is a schematic diagram depicting the CARD4/NOD1 gene. Three IRF-1 binding motifs (IRF-1A, IRF-1B, and IRF-1C) are indicated as black boxes (▪). FIG. 5B is a schematic diagram depicting pGL Nod 1-luciferase deletion mutants. FIGS. 5C and 5D are graphs showing luciferase activity in SW480 cells were transiently transfected with 500 ng/well of the indicated expression plasmid. Ten hours after transfection, cells were cultured for a further sixteen hours with 100 ng/ml of IFNγ and then luciferase activity was measured. Black bars indicate the presence of IFNγ. White bars indicate the control conditions.
# To identify the transcriptional regulation of NOD1, a series of luciferase reporter vectors was constructed, containing up to 2,128 base pairs corresponding to the DNA sequence upstream of base 1 and extending 21 base pairs into the first exon of NOD1 (FIGS. 5A and 5B). Luciferase activity in SW480 cells transfected with a vector containing the entire 2,128 base pairs upstream DNA (pGL-2128) was 125±16 fold higher than that obtained with the empty pGL3 basic vector.
# [9] = system: NOD1 protein in SW480 cells; assay: Immunoprecipitation / Western blot of NOD1 protein in SW480 cells; type: cell-based, human; details: 100 ng/ml IFNγ, 6-48 hours, immunoprecipitation and immunoblot
# Description: FIGS. 4A and 4B are photographs of Western blots. […] Anti-HA monoclonal antibody and biotinylated anti-CARD4/NOD1 antiserum (HM3847) detected NOD1 protein in COS7 cells transiently transfected with pCl CARD4-HA. […] Lysates from COS7 cells transiently transfected with pCl CARD4-HA were used as positive control.
# To investigate the expression of NOD1 protein, anti-NOD1 sera were generated. The specificity and the sensitivity were confirmed using lysates from COS7 cells transiently transfected with the HA tagged CARD4 expression plasmid, pCl CARD4-HA (FIG. 4A). Consistent with the regulation of mRNA expression, NOD1 protein was also augmented in SW480 cells by IFNγ stimulation (FIG. 4B).
molecule,measurement,setting,value
IFN-α,percentage of intracellular bacteria / invasive ability of S. typhimurium,"S. typhimurium [1]; Caco-2 cells stimulated with RA, IFN-α or both, two hour incubation",remained the same
same,grim-19 mRNA expression,"[2]; Caco-2 cells stimulated with RA, IFN-α or both, real time RT-PCR",did not show increased GRIM-19 expression
TNFα,NOD2 protein,[3],upregulated
same,NOD2 mRNA expression,"[4]; SW480 cells, TNFα, concentration and time-dependent",up-regulated
NOD2: NOD2 protein expressed from Flag-tagged mammalian expression vector pCMVFlag-NOD2,invasive ability of S. typhimurium,S. typhimurium [5],decreased
same,cell death,Caco-2 cells,did not induce cell death
C[C@@H]1C[C@@H]([C@H](O)CC2CC(=O)NC(=O)C2)C(=O)[C@@H](C)C1 [Cycloheximide],second peak of NOD2 mRNA expression (at twenty-four hours),[4]; SW480 cells stimulated with 10 ng/ml TNFα,inhibited
"grim-19 control siRNA: grim-19 control siRNA (sequence 2, atcgaggacttcgaggctc), which did not affect grim-19 mRNA (guide ATCGAGGACTTCGAGGCTC; chemistry not given here) [reference compound]",NF-κB activation,[6],no significant effect
same,grim-19 mRNA level,[7],did not knockdown
same,percentage of intracellular bacteria,S. typhimurium [1],not observed
same,grim-19 mRNA levels,[2],did not affect
IL-β: cytokine as printed in b202; figure legend b47 names IL-1β,NOD1 mRNA expression,[8],did not affect
TGFβ,NOD1 mRNA expression,[8],did not affect
"grim-19 siRNA-1: siRNA expressed from pSUPER vector, 19-residue sequence 1-gtgtgggatactgcgagta specific to human grim-19 cDNA (guide GTGTGGGATACTGCGAGTA; expressed from pSUPER vector)",invasive ability of S. typhimurium,S. typhimurium [5],reversed
same,NF-κB activation,[6],50%
same,grim-19 mRNA level,[7],significantly decreased
same,invasive ability of S. typhimurium in stimulated Caco-2 cells,"S. typhimurium [1]; Caco-2 cells stimulated with RA and IFN-α, compared with non-stimulated cells",restored
same,percentage of intracellular bacteria,S. typhimurium [1],162.0%±43.8%
same,grim-19 mRNA levels,[2],significantly decreased
B1,NOD1 mRNA expression,[8],did not affect
B2,NOD1 mRNA expression,[8],did not affect
B3,increase of luciferase activity,human NOD1 promoter,80%
same,NOD1 mRNA expression,[8],augmented
same,NOD1 protein,[9],augmented
